Molecular target: T1, ERK5 (Homo sapiens, UniProt Q13164)
T1 construct: made in house
Experiment: ERK5 IMAP assay (fluorescence polarisation)
Format: biochemical
Conditions: average (e.g. geometric mean) where more than one data point; read-out: ERK5 IC50

T1 sequence (Q13164 whole entry): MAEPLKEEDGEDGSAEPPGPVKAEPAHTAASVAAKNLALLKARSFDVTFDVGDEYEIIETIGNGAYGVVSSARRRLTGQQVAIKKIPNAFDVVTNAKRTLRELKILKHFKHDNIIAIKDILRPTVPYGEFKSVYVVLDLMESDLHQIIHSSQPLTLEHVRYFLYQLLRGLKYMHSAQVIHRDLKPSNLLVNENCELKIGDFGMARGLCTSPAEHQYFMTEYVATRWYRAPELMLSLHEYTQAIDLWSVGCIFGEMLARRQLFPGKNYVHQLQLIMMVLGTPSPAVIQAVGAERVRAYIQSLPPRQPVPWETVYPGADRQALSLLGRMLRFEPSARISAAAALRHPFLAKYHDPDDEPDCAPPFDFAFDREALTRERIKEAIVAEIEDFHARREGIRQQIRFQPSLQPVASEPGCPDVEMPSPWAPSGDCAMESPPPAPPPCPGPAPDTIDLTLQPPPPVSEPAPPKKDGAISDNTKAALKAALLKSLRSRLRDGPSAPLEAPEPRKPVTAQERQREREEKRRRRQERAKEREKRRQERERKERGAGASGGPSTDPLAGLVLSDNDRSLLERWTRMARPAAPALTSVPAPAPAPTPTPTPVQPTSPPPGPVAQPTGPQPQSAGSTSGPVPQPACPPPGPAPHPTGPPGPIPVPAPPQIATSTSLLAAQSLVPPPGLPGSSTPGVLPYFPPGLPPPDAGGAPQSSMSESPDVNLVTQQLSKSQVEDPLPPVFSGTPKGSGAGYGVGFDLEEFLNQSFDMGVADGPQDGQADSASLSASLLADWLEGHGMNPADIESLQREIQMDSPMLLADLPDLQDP

Structure (SMILES): CCc1ccc(F)c(C(=O)c2c[nH]c(C(=O)Nc3cncnc3)c2)c1F [Example 163, 4-(3-Ethyl-2,6-difluorobenzoyl)-N-(pyrimidin-5-yl)-1H-pyrrole-2-carboxamide]
- IC50: 3.46 µM

Structure (SMILES): CCc1ccc(F)c(C(=O)c2c[nH]c(C(=O)NC3CCN(C)CC3)c2)c1F [Example 164, 4-(3-Ethyl-2,6-difluorobenzoyl)-N-(1-methylpiperidin-4-yl)-1H-pyrrole-2-carboxamide]
- IC50: 0.61 µM

Structure (SMILES): C=Cc1ccc(F)c(C(=O)c2c[nH]c(C(=O)Nc3cccnc3)c2)c1F [Example 165, 4-(2,6-Difluoro-3-vinylbenzoyl)-N-(pyridin-3-yl)-1H-pyrrole-2-carboxamide]
- IC50: 1.58 µM

Structure (SMILES): C=Cc1ccc(F)c(C(=O)c2c[nH]c(C(=O)Nc3cncnc3)c2)c1F [Example 166, 4-(2,6-Difluoro-3-vinylbenzoyl)-N-(pyrimidin-5-yl)-1H-pyrrole-2-carboxamide]
- IC50: 1.37 µM

Structure (SMILES): C=C(C)c1ccc(F)c(C(=O)c2c[nH]c(C(=O)Nc3cccnc3)c2)c1F [Example 168, 4-(2,6-Difluoro-3-(prop-1-en-2-yl)benzoyl)-N-(pyridin-3-yl)-1H-pyrrole-2-carboxamide]
- IC50: 2.45 µM

Structure (SMILES): O=C(Nc1cccnc1)c1cc(C(=O)c2c(F)ccc(Cl)c2Cl)c[nH]1 [Example 169, 4-(2,3-Dichloro-6-fluorobenzoyl)-N-(pyridin-3-yl)-1H-pyrrole-2-carboxamide]
- IC50: 0.265 µM

Structure (SMILES): O=C(Nc1cncnc1)c1cc(C(=O)c2c(F)ccc(Cl)c2Cl)c[nH]1 [Example 170, 4-(2,3-Dichloro-6-fluorobenzoyl)-N-(pyrimidin-5-yl)-1H-pyrrole-2-carboxamide]
- IC50: 0.346 µM

Structure (SMILES): CN1CCC(NC(=O)c2cc(C(=O)c3c(F)ccc(Cl)c3Cl)c[nH]2)CC1 [Example 171, 4-(2,3-Dichloro-6-fluorobenzoyl)-N-(1-methylpiperidin-4-yl)-1H-pyrrole-2-carboxamide]
- IC50: 0.283 µM

Structure (SMILES): CN1CCC(NC(=O)c2cc(C(=O)c3c(Cl)ccc(Cl)c3F)c[nH]2)CC1 [Example 174, 4-(3,6-dichloro-2-fluorobenzoyl)-N-(1-methylpiperidin-4-yl)-1H-pyrrole-2-carboxamide]
- IC50: 0.115 µM

Structure (SMILES): Cc1ccc(F)c(C(=O)c2c[nH]c(C(=O)Nc3cccnc3)c2)c1Cl [Example 175, 4-(2-Chloro-6-fluoro-3-methylbenzoyl)-N-(pyridin-3-yl)-1H-pyrrole-2-carboxamide]
- IC50: 0.649 µM

Structure (SMILES): Cc1ccc(F)c(C(=O)c2c[nH]c(C(=O)Nc3cncnc3)c2)c1Cl [Example 176, 4-(2-Chloro-6-fluoro-3-methylbenzoyl)-N-(pyrimidin-5-yl)-1H-pyrrole-2-carboxamide]
- IC50: 1.18 µM

Structure (SMILES): Cc1ccc(F)c(C(=O)c2c[nH]c(C(=O)NC3CCN(C)CC3)c2)c1Cl [Example 177, 4-(2-Chloro-6-fluoro-3-methylbenzoyl)-N-(1-methylpiperidin-4-yl)-1H-pyrrole-2-carboxamide]
- IC50: 0.472 µM

Structure (SMILES): Cc1ccc(Cl)c(C(=O)c2c[nH]c(C(=O)Nc3cccnc3)c2)c1F [Example 178, 4-(6-Chloro-2-fluoro-3-methylbenzoyl)-N-(pyridin-3-yl)-1H-pyrrole-2-carboxamide]
- IC50: 0.515 µM

Structure (SMILES): Cc1ccc(Cl)c(C(=O)c2c[nH]c(C(=O)Nc3cncnc3)c2)c1F [Example 179, 4-(6-Chloro-2-fluoro-3-methylbenzoyl)-N-(pyrimidin-5-yl)-1H-pyrrole-2-carboxamide]
- IC50: 0.263 µM

Structure (SMILES): Cc1ccc(Cl)c(C(=O)c2c[nH]c(C(=O)NC3CCN(C)CC3)c2)c1F [Example 180, 4-(6-Chloro-2-fluoro-3-methylbenzoyl)-N-(1-methylpiperidin-4-yl)-1H-pyrrole-2-carboxamide]
- IC50: 0.49 µM

Structure (SMILES): O=C(Nc1cccnc1)c1cc(C(=O)c2c(Cl)ccc(Br)c2F)c[nH]1 [Example 181, 4-(3-Bromo-6-chloro-2-fluorobenzoyl)-N-(pyridin-3-yl)-1H-pyrrole-2-carboxamide]
- IC50: 0.0665 µM

Structure (SMILES): O=C(Nc1cncnc1)c1cc(C(=O)c2c(Cl)ccc(Br)c2F)c[nH]1 [Example 182, 4-(3-Bromo-6-chloro-2-fluorobenzoyl)-N-(pyrimidin-5-yl)-1H-pyrrole-2-carboxamide]
- IC50: 0.606 µM

Structure (SMILES): Cc1cccc(F)c1C(=O)c1c[nH]c(C(=O)Nc2ccncc2)c1 [Example 185, 4-(2-Fluoro-6-methylbenzoyl)-N-(pyridin-4-yl)-1H-pyrrole-2-carboxamide]
- IC50: 1.9 µM

Structure (SMILES): Cc1cccc(F)c1C(=O)c1c[nH]c(C(=O)Nc2cccnc2)c1 [Example 186, 4-(2-Fluoro-6-methylbenzoyl)-N-(pyridin-3-yl)-1H-pyrrole-2-carboxamide]
- IC50: 2.57 µM

Structure (SMILES): CC(C)(C)OC(=O)N1CCC(NC(=O)c2cc(C(=O)c3c(F)cccc3Cl)c[nH]2)CC1 [Example 193, tert-Butyl 4-(4-(2-chloro-6-fluorobenzoyl)-1H-pyrrole-2-carboxamido)piperidine-1-carboxylate]
- IC50: 1.08 µM

Structure (SMILES): O=C(NC1CCOCC1)c1cc(C(=O)c2c(F)cccc2Cl)c[nH]1 [Example 194, 4-(2-Chloro-6-fluorobenzoyl)-N-(tetrahydro-2H-pyran-4-yl)-1H-pyrrole-2-carboxamide]
- IC50: 0.845 µM

Structure (SMILES): CN1CCC(NC(=O)c2cc(C(=O)c3c(F)cccc3Br)c[nH]2)CC1 [Example 195, 4-(2-Bromo-6-fluorobenzoyl)-N-(1-methylpiperidin-4-yl)-1H-pyrrole-2-carboxamide]
- IC50: 0.289 µM

Structure (SMILES): CC(C)(C)OC(=O)N1CCC(NC(=O)c2cc(C(=O)c3c(F)cccc3Br)c[nH]2)CC1 [Example 196, tert-Butyl 4-(4-(2-bromo-6-fluorobenzoyl)-1H-pyrrole-2-carboxamido)piperidine-1-carboxylate]
- IC50: 2.72 µM

Structure (SMILES): O=C(NC1CCOCC1)c1cc(C(=O)c2c(F)cccc2Br)c[nH]1 [Example 198, 4-(2-Bromo-6-fluorobenzoyl)-N-(tetrahydro-2H-pyran-4-yl)-1H-pyrrole-2-carboxamide]
- IC50: 1.22 µM

Structure (SMILES): CCc1cccc(F)c1C(=O)c1c[nH]c(C(=O)Nc2cccnc2)c1 [Example 199, 4-(2-Ethyl-6-fluorobenzoyl)-N-(pyridin-3-yl)-1H-pyrrole-2-carboxamide]
- IC50: 12.7 µM

Structure (SMILES): CCc1cccc(F)c1C(=O)c1c[nH]c(C(=O)NC2CCNCC2)c1 [Example 200, 4-(2-Ethyl-6-fluorobenzoyl)-N-(piperidin-4-yl)-1H-pyrrole-2-carboxamide]
- IC50: 4.98 µM

Structure (SMILES): CCc1cccc(F)c1C(=O)c1c[nH]c(C(=O)NC2CCN(C)CC2)c1 [Example 201, 4-(2-Ethyl-6-fluorobenzoyl)-N-(1-methylpiperidin-4-yl)-1H-pyrrole-2-carboxamide]
- IC50: 4.97 µM

Structure (SMILES): O=C(Nc1cccnc1)c1cc(C(=O)c2c(F)cccc2C2CC2)c[nH]1 [Example 202, 4-(2-Cyclopropyl-6-fluorobenzoyl)-N-(pyridin-3-yl)-1H-pyrrole-2-carboxamide]
- IC50: 23 µM

Structure (SMILES): O=C(NC1CCNCC1)c1cc(C(=O)c2c(F)cccc2C2CC2)c[nH]1 [Example 203, 4-(2-Cyclopropyl-6-fluorobenzoyl)-N-(piperidin-4-yl)-1H-pyrrole-2-carboxamide]
- IC50: 5.82 µM

Structure (SMILES): CN1CCC(NC(=O)c2cc(C(=O)c3c(F)cccc3C3CC3)c[nH]2)CC1 [Example 204, 4-(2-Cyclopropyl-6-fluorobenzoyl)-N-(1-methylpiperidin-4-yl)-1H-pyrrole-2-carboxamide]
- IC50: 8.23 µM
